Assay results: patent US4593104A, “2-halo-N-(azole-1-yl-methyl)-substituted acetanilides” (BASF Aktiengesellschaft, priority 1976, dated 1986)

Key:
Glyc. max = assay: preemergence application in the open, % damage; format: in vivo, Glycine max
Description: (§1) The experiments were carried out on small plots. The soil was a sandy loam having a pH of from 5 to 6 and containing from 1 to 1.5% humus. The treatment was preemergence, the active ingredients being applied immediately or at the latest 3 days after sowing. The crop plants were sown in rows. The weed flora was made up of the most widely varying species and was natural; the weed flora depended on the time of the year and in part on the crop (e.g., spring-germinating, summer-germinating). The substances were emulsified or suspended in water as the vehicle, and applied by means of a motor-driven plot spray mounted on a hitch. When no rain fell, the plots were watered to ensure germination and growth of the crop plants and weeds. All the experiments were run for several weeks. Over this period, assessments were made at certain intervals on the 0 to 100 scale.

Poa annua = assay: preemergence treatment in the greenhouse, % damage; format: in vivo
Summary of the method: (§2)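 Test species were sown separately in sandy loam and held at 25–40 °C (heat-loving) or 15–30 °C (temperate). Actives in water went onto the soil surface immediately (preemergence) or onto 3–10 cm plants (postemergence). A 0–100 scale rates emergence loss or destruction over 4–6 weeks.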

Amar. retro. [1] = assay: preemergence treatment in the greenhouse, % damage; format: in vivo; settings: one value printed for two rates (0.125 0.25 kg/ha)
Summary of the method: as §2

Solanum nigrum = assay: preemergence treatment in the greenhouse, % damage; format: in vivo; settings: 0.25 kg/ha
Summary of the method: as §2

Bromus spp. = assay: preemergence treatment in the greenhouse, % damage; format: in vivo
Summary of the method: as §2

Sorgh. halep. = assay: preemergence treatment in the greenhouse, % damage; format: in vivo
Summary of the method: as §2

Cyp. diff. = assay: preemergence treatment in the greenhouse, % damage; format: in vivo
Summary of the method: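 Ratings, on a 0 to 100 scale, show injury where 100 means no emergence or complete destruction of visible parts. Compounds in water were sprayed either onto freshly sown soil, which was then watered and hooded, or onto plants 3–10 cm tall. Observation lasted 4–6 weeks.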

Euph. gen. = assay: preemergence treatment in the greenhouse, % damage; format: in vivo; settings: 0.25 kg/ha
Summary of the method: as §2

Chrys. seget. [2] = assay: preemergence treatment in the greenhouse, % damage; format: in vivo; settings: 0.25 kg/ha
Summary of the method: as §2

Matric. spp. = assay: postemergence application in the greenhouse, % damage; format: in vivo
From the text: (§3) The vessels employed were plastic flowerpots having a volume of 300 cm^3; the substrate was a sandy loam containing about 1.5% humus. The seeds of the test plants (see Table 1) were sown shallow, and separated according to species. In the case of Cyperus esculentus, pregerminated tubers were planted. In the preemergence treatment, the active ingredients were then immediately applied to the surface of the soil. They were suspended or emulsified in water as the vehicle, and sprayed through atomizing nozzles. After the agents had been applied, the vessels were lightly sprinkler-irrigated to set germination and growth going, and to activate the chemical agents. The vessels were then covered with transparent plastic hoods until the plants had taken root. This cover ensured uniform germination of the test plants (to the extent that this was not impaired by the chemicals), and prevented readily volatile substances from evaporating.
(§4) For postemergence treatment, the plants were first grown to a height of from 3 to 10 cm, depending on their habit, before treated. Hoods were not placed on the pots. The experiments were set up in the greenhouse, hotter areas (25° to 40° C.) being preferred for heat-loving species, and 15° to 30° C. for plants from moderate climates. The experiments were carried out for from 4 to 6 weeks. During this period the plants were tended and their reaction to the various treatments was assessed. The following tables contain the substances investigated, the application rates in kg/ha of active ingredient, and the test plant species. Assessments were made on a 0 to 100 scale, 0 denoting no damage or normal emergence, and 100 denoting no emergence or complete destruction of at least the visible plant parts.

Avena fat. = assay: as above; format: in vivo
From the text: as §3, §4

Setaria spp. = assay: as above; format: in vivo
From the text: as §3, §4

Stell. med. = assay: as above; format: in vivo
From the text: as §3, §4

Alopec. myosur. [3] = assay: as above; format: in vivo
From the text: as §3, §4

Chrys. seget. [4] = assay: as above; format: in vivo
From the text: as §3, §4

Stellaria media = assay: preemergence application in the open, % damage; format: in vivo; settings: 2.0 kg/ha
Description: as §1

Amar. retro. [5] = assay: preemergence application in the open, % damage; format: in vivo
Description: as §1

Anth./Matric. = assay: preemergence application in the open, % damage; format: in vivo; settings: 2.0 kg/ha
Description: as §1

Chenop. spp. = assay: preemergence application in the open, % damage; format: in vivo
Description: as §1

Brassica napus = assay: preemergence application in the open, % damage; format: in vivo; settings: 2.0 kg/ha
Description: as §1

Lamium spp. = assay: preemergence application in the open, % damage; format: in vivo; settings: 2.0 kg/ha
Description: as §1

Galins. spp. = assay: preemergence application in the open, % damage; format: in vivo
Description: as §1

Alopec. myosur. [6] = assay: preemergence application in the open, % damage; format: in vivo; settings: 2.0 kg/ha
Description: as §1

Echin. c.g. = assay: preemergence application in the open, % damage; format: in vivo
Description: as §1

Cyper. escul. = assay: postemergence application in the greenhouse, % damage; format: in vivo, Cyperus esculentus
From the text: as §3, §4

For `Cc1cccc(C)c1N(Cn1cccn1)C(=O)CCl` [Compound 5], the “% damage” value (Glyc. max; 0,5 kg/ha) was 0%, the “% damage” value (Glyc. max; 1,0 kg/ha) was 4% and the “% damage” value (Poa annua; 0.125 kg/ha) was 100%. For the same compound, the “% damage” value (Poa annua; 0.25 kg/ha) was 100%, the “% damage” value (Amar. retro. [1]) was 100% and the “% damage” value (Solanum nigrum) was 100%. The “% damage” value (Bromus spp.; 0.125 kg/ha) was 90%, the “% damage” value (Bromus spp.; 0.25 kg/ha) was 95% and the “% damage” value (Sorgh. halep.; 0.125 kg/ha) was 95%. The “% damage” value (Sorgh. halep.; 0.25 kg/ha) was 95%, the “% damage” value (Cyp. diff.; 0.125 kg/ha) was 100% and the “% damage” value (Cyp. diff.; 0.25 kg/ha) was 100%. For the same compound, the “% damage” value (Euph. gen.) was 100%, the “% damage” value (Chrys. seget. [2]) was 100% and the “% damage” value (Matric. spp.; 1.0 kg/ha) was 95%. The “% damage” value (Matric. spp.; 2.0 kg/ha) was 95%, the “% damage” value (Avena fat.; 1.0 kg/ha) was 90% and the “% damage” value (Avena fat.; 2.0 kg/ha) was 92%. For the same compound, the “% damage” value (Setaria spp.; 1.0 kg/ha) was 82%, the “% damage” value (Setaria spp.; 2.0 kg/ha) was 85% and the “% damage” value (Stell. med.; 1.0 kg/ha) was 95%. For the same compound, the “% damage” value (Stell. med.; 2.0 kg/ha) was 98%, the “% damage” value (Alopec. myosur. [3]; 1.0 kg/ha) was 80% and the “% damage” value (Alopec. myosur. [3]; 2.0 kg/ha) was 90%. For the same compound, the “% damage” value (Chrys. seget. [4]; 1.0 kg/ha) was 98%, the “% damage” value (Chrys. seget. [4]; 2.0 kg/ha) was 98% and the “% damage” value (Stellaria media) was 100%. For the same compound, the “% damage” value (Amar. retro. [5]; 0,5 kg/ha) was 100%, the “% damage” value (Amar. retro. [5]; 1,0 kg/ha) was 100% and the “% damage” value (Anth./Matric.) was 100%. The “% damage” value (Chenop. spp.; 0,5 kg/ha) was 69%, the “% damage” value (Chenop. spp.; 1,0 kg/ha) was 85% and the “% damage” value (Brassica napus) was 7.5%. For the same compound, the “% damage” value (Lamium spp.) was 100%, the “% damage” value (Galins. spp.; 0,5 kg/ha) was 91% and the “% damage” value (Galins. spp.; 1,0 kg/ha) was 100%. For the same compound, the “% damage” value (Alopec. myosur. [6]) was 95%, the “% damage” value (Echin. c.g.; 0,5 kg/ha) was 100% and the “% damage” value (Echin. c.g.; 1,0 kg/ha) was 100%. The “% damage” value (Cyper. escul.; 1.0 kg/ha) was 70% and the “% damage” value (Cyper. escul.; 2.0 kg/ha) was 72%.
